This is an account of results in patent US8481757B2, “Compounds and compositions useful in the treatment of malaria” (Georgua Tech Research Corporation, priority 2010, dated 2013).

Usually IC50 stands for the midpoint of a concentration-inhibition curve.

Data set [1] has as its system Plasmodium falciparum parasites (3D7 strain). As to conditions: from Hawley et al. (Antimicrob Agents Chemother 1998, 42: 682); cited from earlier work.
A further data set deals with heme crystallization. In words: Inhibition of heme crystallization. The class given is biochemical. The following applies: molar equivalents of drug to heme.
Data set [2] has as its system Plasmodium falciparum HB3 (chloroquine-sensitive parasite). The following applies: from Hawley et al. (Antimicrob Agents Chemother 1998, 42: 682); cited from earlier work.
Data set [3] shares this test system. In words: Efficacy against Plasmodium falciparum HB3. The data set is classed as cell-based.
Another data set is described as follows: Cytotoxicity, J774. The data set is classed as cell-based. As to conditions: mouse, J774 cells.
The test system of data set [4] is Plasmodium falciparum parasites (3D7 strain). In words: SYBR Green based parasite proliferation assay (antimalarial activity). The class given is cell-based.
Data set [5] concerns Plasmodium falciparum Dd2 (chloroquine-resistant parasite). In words: Efficacy against Plasmodium falciparum Dd2. The data set is classed as cell-based.
The nature of the next data set: Cytotoxicity, HepG2. The class given is cell-based. The following applies: human, HepG2 cells.
The nature of a further data set: Cytotoxicity, Vero. The data set is classed as cell-based. As to conditions: African green monkey, Vero cells.
Setting [6] is: Plasmodium falciparum, 3D7, Table 5, Example 5 numbering (1-13), read-out: P. falciparum (3D7) IC50.
The mark [7] stands for this setting: Plasmodium falciparum, 3D7, Table 1, Example 1 numbering (1-18), read-out: Antimalarial IC50.

Where two headings read alike, the source gives them in different places.

On to `CCN(CC)Cc1cc(Nc2ccnc3cc(Cl)ccc23)ccc1O` [AMQ, amodiaquine], for which the IC50 in data set [1] is 7.8 nM; in data set [2], 8.5 nM. Moreover, the “IC50 for heme crystallization” value in the data set on heme crystallization was 1.2 ± 0.19 equivalents.

For the compound `CC1=C2Cc3cc(ccc3O)C(=O)O[C@H](C(C)(C)Br)CC[C@](C)(O)[C@H](Br)CC[C@]2(C)[C@@H](Br)CC1` [Compound 1], the IC50 in data set [3] was 565 nM; in “Cytotoxicity, J774”, 19000 nM; in data set [4] (setting [6]) it was 650 nM; in data set [4] (Plasmodium falciparum, 3D7, chloroquine-sensitive parasite, Table 6, Example 5 numbering, read-out: 3D7 IC50), 658 nM; in [4] (Table 5, Example 5 numbering (1-13), read-out: P. falciparum (3D7) IC50), 660 nM; in data set [5], 497 nM. Besides, the IC50 was determined as 21300 nM in “Cytotoxicity, HepG2” and 34600 nM in “Cytotoxicity, Vero”. Moreover, the “IC50 for heme crystallization” value with heme crystallization worked out at 2.5 ± 0.13 equivalents.

As for `CC1=C2Cc3cc(ccc3O)C(=O)O[C@H](C(C)(C)Br)CC[C@](C)(O)/C=C\C[C@]2(C)C=CC1` [Compound 11], the IC50 in data set [4] (setting [6]) was 4600 nM.

As to `C=C1CC[C@H](Br)[C@@]2(C)CC[C@@H]3O[C@@]3(C)CC[C@@H](C(C)(C)O)OC(=O)c3ccc(O)c(c3)C[C@H]12` [Compound 14], the IC50 in [4] (setting [7]) came out at 18000 nM.

On to `CC1=CC[C@@H]2O[C@@]2(C)CC[C@@H](C(C)(C)O)OC(=O)c2ccc(O)c(c2)CC2=C(C)CCC12` (stereo partly shown) [Compound 18], for which the IC50 in data set [4] (setting [7]) was greater than 100000 nM.

For the compound “debromophycolide A [Compound 18 (Example 1)]”, in data set [4] (Table 4, Example 3 numbering (1-3), read-out: Antimalarial activity IC50), the IC50 is greater than 100000 nM.
